Read-outs that look alike come from different tables or passages of the source.
Assays:
[1] = system: extracts of Toxoplasma gondii; assay: Inhibition of phosphorylation of adenosine (or inosine) to nucleoside 5'-monophosphate; format: biochemical; details: T. gondii extract
Protocol: (§1) Enzyme assay. […] Incubation was carried out at 37° C.

extracts of human liver = assay: Inhibition of phosphorylation of NBMPR; format: biochemical
Protocol: as §1

[2] = system: extracts of Toxoplasma gondii; assay: Inhibition of phosphorylation of NBMPR (formation of NBMPR-P); format: biochemical
Protocol: as §1

[3] = system: extracts from mouse liver; assay: Inhibition of phosphorylation of adenosine; format: biochemical; details: mouse liver extract
Protocol: as §1

[4] = system: extracts from human liver; assay: Inhibition of phosphorylation of adenosine; format: biochemical; details: human liver extract
Protocol: as §1

[5] = system: extracts from different strains of Toxoplasma; assay: Conversion of NBMPR to NBMPR-P in the presence of ATP or PRPP by extracts of different strains; format: biochemical, Toxoplasma gondii
Protocol: Maintenance of T. gondii. The wild type RH, the adenosine kinase deficient mutant ara-A^R (R), and the phosphoribosyltransferase deficient mutants (HGPRT^- and Tnx^R-1) strains of T. gondii were propagated by intraperitoneal passage in female CD1 mice (20-25 g). Mice were injected intraperitoneally (i.p.) with an inoculum (10^6 cells) of T. gondii contained in 0.2 ml of sterile phosphate buffered saline (PBS), pH 7.2, and were sacrificed after 2-3 days by inhalation of ether. The parasites were harvested from the peritoneal cavity by injection, aspiration and reinjection of 3-5 mL of PBS (2-3 times). The peritoneal fluid was examined microscopically to determine the concentration of T. gondii and to ascertain the extent of contamination by host cells.
as §1
Phosphoribosyltransferase activity was measured by following the formation of [^3 H] NMMPR-P from [^3 H] NBMPR and 5-phosphoribosyl-1-pyrophosphate (PRPP). The standard reaction mixtures contained 50 mM Tris-Cl (pH 7.4), 10 μM [^3 H] NBMPR (55 Ci/mol), 4 mM PRibPP, 20 mM MgCl2, 50 mM KCI, and 50 μl of enzyme extract (4-8 μg of protein) in a final volume of 100 μl. Reactions were incubated at 37° C. and terminated in boiling water bath for 2 minutes. Precipitated proteins were removed by centrifugation. A 10 μl aliquot of the resulting supernatant was spotted on cellulose thin layer chromatography plates which were developed with 5% dibasic potassium phosphate. The average Rf values were as follows: NBMPR, 0.28; NBMP, 0.16; NBMPR-P, 0.44. The radioactivity was quantified using a Berthold TLC Linear Analyzer (Wallac, Inc., Gaithersburg, Md.). All assays were run under conditions in which velocity was linear with respect to time and amount of enzyme extract. Enzyme velocity was calculated by multiplying the fraction of nucleotide formed from nucleoside by the amount of nucleoside in the assay divided by the incubation time. Specific activity was estimated by dividing enzyme velocity by the amount of protein in the assay.

[6] = system: Toxoplasma gondii grown in human fibroblasts; assay: Plaque formation in human fibroblasts; format: cell-based; details: control (0 μM) 21 ± 3.5
Description: To investigate the effect of metabolizing NBMPR on the survival of T. gondii, the number and size of plaque formation by T. gondii on human fibroblasts was investigated. NBMPR decreased the number and size of toxoplasma in human fibroblasts (Table 13).

[7] = system: extracts of Toxoplasma gondii; details: 50 µM; for Percent conversion of NBMPR to NBMP: t. gondii extract; for Percent conversion of NBMPR to NBMPR-P / Percent conversion of NBMPR to nucleobase (NBMP): toxoplasma gondii
Protocol: (§2) Preparation of extracts. Extracts of T. gondii were prepared by homogenizing parasites or tissues in ice cold (3:1, v/w) 50 mM Tris-Cl buffer (pH 7.4) containing 1 mM EDTA, 1 mM dithiothreitol with a polytron homogenizer (Brinkmann, Westbury, N.Y.) and the homogenates were centrifuged at 105,000×g for 1 hour at 4° C. The supernatant fluids (cytosol) were collected and used as the enzyme source.
(§3) Conversion assays. To measure the percent conversion of NBMPR to NBMPR-P and nucleobase (NBMP) by extracts of Toxoplasma gondii and mouse spleen, 50 mM Tris-Cl (pH 7.4), 5 mM MgCl2, 2.5 mM ATP, 5 mM creatine phosphate, creatine phosphokinase, 50 μM [^3 H-(G)] NBMPR (1.95 μCi/nmol), and 10 μl of cytosol extract were reacted in a final volume of 20 μl and incubated at 37° C. Reaction was initiated by addition of extract and terminated by boiling for 3 minutes. In a second reaction, 25 mM KCN was added to the reaction mixture.
(§4) The plates for the assays of NBMPR were developed in n-butanol/ethyl acetate/NH4 /methanol (49:28:28:21, v/v/v/v). The Rf values were: NBMPR, 0.76; NBMPR-P, 0.50; NBMP, 0.89. The amounts of radioactivity in the substrate (nucleoside) and product (nucleobase and nucleotides) were calculated on a percentage basis using a Berthold LB-284 Automatic TLC-Linear Analyzer.

extracts of mouse spleen = details: spleen cytosol extract, 50 µM
Protocol: as §2, §3, §4

[8] = Toxicity of compounds, MTT assay; format: cell-based, human; details: human, foreskin fibroblasts
Protocol: Toxicity of compounds. Toxicity of the different doses of the various analogues were performed at least in triplicates, using a modification of the Microculture Tetrazolium (MTT) assay and uninfected monolayers of human foreskin fibroblasts. Briefly, confluent cells were incubated for at least 24 hours in the 96-well flat bottom microtiterplates (~10^5 /200 μL/well) and incubated at 37° C. in 5% CO2, 95% air to allow the cells to attach. The medium was then replaced with 200 μL of fresh medium. […] The cultures were then incubated for 48 hours, after which 50 μL of sterile MTT solution (2 mg/1 mL PBS) was added to each well. MTT solution was sterilized by filtration through 0.22 μm filters (Costar, Cambridge, Mass.). After 4 hours incubation, the medium was removed and 100 μL of dimethylsulfoxide (DMSO) was added to each well and the plates were shaken gently for 2-3 minutes to dissolve the formed formazan crystals. The absorbance was measured at 540 nm, using a computerized microtiterplate reader (Themomax, Molecular Division)

[9] = system: Toxoplasma gondii grown in human fibroblasts; assay: Incorporation of radiolabeled uracil (parasite survival); format: cell-based; details: Toxoplasma gondii, Fibroblast, [5,6-3H]uracil incorporation, read-out: percent survival of Toxoplasma gondii grown in human fibroblasts
Protocol: Incorporation of Radiolabeled Uracil. […] Uptake and incorporation of radiolabeled uracil into nucleic acids of T. gondii were carried out, at least in triplicates, in tissue culture, using monolayers of human foreskin fibroblasts infected with T. gondii. The fibroblasts were cultured in no more than 30 passages in Dulbecco's modified Eagle medium, containing 100 units/mL penicillin G and 100 μg/mL streptomycin sulfate, and 10% FBS, pH 7.2. Briefly, confluent cells (4-5 day incubation) were cultured for 24 hours in the 24-well flat bottom microtiterplates (~5×10^5 /1 mL/well) and incubated at 37° C. in 5% CO2, 95% air to allow the cells to attach. The medium was then removed and the cells were infected with isolated T. gondii in medium with 3% FBS (1 parasite/cell). After 1 hour incubation, the cultures were washed with media with 10% FBS to remove extracellular parasites. FBS was maintained at a final concentration of 10%. […] After an additional 18 hours incubation, the medium was replaced with 1 mL drug free media containing […] (2 μCi/mL) and incubated for another 6 hours, after which the media was removed. The fibroblasts were released from the wells by trypsinization with the addition of 200 μL trypsin/EDTA (2.5×) to each well. After 10 minutes incubation, 1 mL of ice cold 10% trichloroacetic acid (TCA) was added to each well. The plates were then placed on a shaker to insure the detachment of the cells. The suspended contents of each well were filtered through GF/A 2.4 cm glass microfiber filters (Whatman, Hillsboro, Oreg.), which were prewashed each with 1 mL double distilled H2 O and dried. After filtration, the filters were washed with 10 mL methanol, left to dry, and then placed in scintillation vials containing 5 mL of Econo-Safe scintillation fluor (Research Products International Corp., Mount Prospect, Ill.), and radioactivity was counted using an LS5801 Beckman scintillation counter.

[10] = biological target: T. gondii adenosine kinase (Toxoplasma gondii, UniProt Q9TVW2); assay: biochemical; details: AppKi for inhibition of T. gondii adenosine kinase, 5 μM adenosine; ± range, at least two estimations
[11] = substrate: Nc1ncnc2c1ncn2[C@@H]1O[C@H](CO)[C@@H](O)[C@H]1O; assay: cells, lysate or membranes named; details: other: adenosine as substrate; pH 8.0
Protocol: Preparation of cytosol extracts. For the structure activity relationships studies, approximately 5×10^8 T. gondii were suspended in 1.2 ml of 50 mM N-2-hydroxyethylpiperazine-N'-2-ethanesulfonic acid (HEPES)-Cl (pH 8.0)/1 mM dithiothreitol and homogenized for 30 seconds at setting 10, using a Brinnmann Instruments Polytron homogenizer fitted with a PTA 7K1 probe. The homogenate was then centrifuged at approximately 116,000 g for 1 hour at 5° and the supernatant (cytosol extract) collected and used as the enzyme source. Fresh cytosol extracts were prepared for each experiment.
Adenosine kinase assay. T. gondii adenosine kinase activity was measured by following the formation of [^14 C]AMP from [^14 C]adenosine and ATP. […]
Reactions were started by the addition of [8-^14 C]adenosine, incubated at 37° for 10 minutes and terminated by placing the reaction tubes in a boiling water bath for 2 minutes. […] The substrate and product spots (which accounted for all of the radioactivity on the plates) were identified by UV quenching, cut out, and the radioactivity quantitated by liquid scintillation counting in 20 ml of Scintilene, using a Packard 460 scintillation counter. […] Enzyme velocity was calculated by multiplying the fraction of AMP formed from adenosine times the amount of adenosine in the assay, and dividing by the incubation time. […]

In the case of `Nc1nc2c(nc(N)n2[C@@H]2O[C@H](CO)[C@@H](O)[C@H]2O)c(=O)[nH]1` [8-Aminoguanosine, reference compound], the “Effect on the phosphorylation of adenosine, in words” value (shortened to “Effect on the phosphorylation”) [1] is reported as “no effect”, the “% Inhibition of phosphorylation of NBMPR, Human Liver” value (“% Inhibition … Human Liver” for short) (extracts of human liver; 25 μM) is reported as 0% and the “% Inhibition … Human Liver” value (extracts of human liver; 50 μM) is reported as 0%. For the same molecule, the “% Inhibition … Human Liver” value (extracts of human liver; 100 μM) was 0%, the “% Inhibition of phosphorylation of NBMPR, T. gondii” value (“% Inhibition … T. gondii” for short) ([2]; 25 μM) was 0% and the “% Inhibition … T. gondii” value ([2]; 50 μM) was 0%. For the same molecule, the “% Inhibition … T. gondii” value ([2]; 100 μM) was 0%, the “Effect on the phosphorylation” value [3] was “no effect” and the “Effect on the phosphorylation” value [4] was “no effect”.

In the case of `O=[N+]([O-])c1ccc(CSc2ncnc3c2ncn3[C@@H]2O[C@H](CO)[C@@H](O)[C@H]2O)cc1` [Compound 21, 6-(p-Nitrobenzyl)mercaptopurine riboside (NBMPR)], the “Percent conversion of NBMPR to NBMPR-P” value ([5]; strain Ara-A^R, +ATP) is reported as 0%, the “Percent conversion of NBMPR to NBMPR-P” value ([5]; strain Ara-A^R, +PRPP) is reported as 3.8 ± 0.2% and the “Percent conversion of NBMPR to NBMPR-P” value ([5]; strain HGPRT^-, +ATP) is reported as 2.6 ± 1.3%. For the same molecule, the “Percent conversion of NBMPR to NBMPR-P” value ([5]; strain HGPRT^-, +PRPP) was 0%, the “Percent conversion of NBMPR to NBMPR-P” value ([5]; strain RH, +ATP) was 0.7 ± 0.2% and the “Percent conversion of NBMPR to NBMPR-P” value ([5]; strain RH, +PRPP) was 4.3 ± 0.3%. The “Percent conversion of NBMPR to NBMPR-P” value ([5]; strain Thx^R-1, +ATP) was 2.0 ± 0.6%, the “Percent conversion of NBMPR to NBMPR-P” value ([5]; strain Thx^R-1, +PRPP) was 0% and the “Number of Plaques” value ([6]; NBMPR 33 μM) was 23 ± 0.7. The “Number of Plaques” value ([6]; NBMPR 100 μM) was 3 ± 1.4, the “Percent conversion of NBMPR to NBMP” value ([7]; 0.25 h) was 0.9 ± 0.3% and the “Percent conversion of NBMPR to NBMP” value ([7]; 0.5 h) was 2.8 ± 3.8%. For the same molecule, the “Percent conversion of NBMPR to NBMP” value ([7]; 1 h) was 4.0 ± 1.3%, the “Percent conversion of NBMPR to NBMP” value ([7]; 2 h) was 9.5 ± 1.3% and the “Percent conversion of NBMPR to NBMP” value ([7]; 4 h) was 14.3 ± 3.3%. The “Percent conversion of NBMPR to NBMPR-P” value ([7]; cytosol extract with kcn, 0.25 h) was 0.5 ± 0.1%, the “Percent conversion of NBMPR to NBMPR-P” value ([7]; cytosol extract with kcn, 0.5 h) was 1.1 ± 0.1% and the “Percent conversion of NBMPR to NBMPR-P” value ([7]; cytosol extract with kcn, 1 h) was 3.7 ± 2.5%. The “Percent conversion of NBMPR to NBMPR-P” value ([7]; cytosol extract with kcn, 2 h) was 5.8 ± 0.7%, the “Percent conversion of NBMPR to NBMPR-P” value ([7]; cytosol extract with kcn, 4 h) was 11.8 ± 4.8% and the “Percent conversion of NBMPR to NBMPR-P” value ([7]; cytosol extract, 0.25 h) was 2.1 ± 0.5%. For the same molecule, the “Percent conversion of NBMPR to nucleobase (NBMP)” value (shortened to “Percent conversion … (NBMP)”) ([7]; cytosol extract, 0.25 h) was 8.0 ± 0.4%, the “Percent conversion of NBMPR to NBMPR-P” value ([7]; cytosol extract, 0.5 h) was 3.2 ± 0.4% and the “Percent conversion … (NBMP)” value ([7]; cytosol extract, 0.5 h) was 7.8 ± 3.7%. For the same molecule, the “Percent conversion of NBMPR to NBMPR-P” value ([7]; cytosol extract, 1 h) was 7.8 ± 1.5%, the “Percent conversion … (NBMP)” value ([7]; cytosol extract, 1 h) was 14.8 ± 1.2% and the “Percent conversion of NBMPR to NBMPR-P” value ([7]; cytosol extract, 2 h) was 9.4 ± 1.0%. The “Percent conversion … (NBMP)” value ([7]; cytosol extract, 2 h) was 9.4 ± 2.8%, the “Percent conversion of NBMPR to NBMPR-P” value ([7]; cytosol extract, 4 h) was 15.1 ± 4.4% and the “Percent conversion … (NBMP)” value ([7]; cytosol extract, 4 h) was 10.4 ± 6.2%. For the same molecule, the “Percent conversion of NBMPR to NBMPR-P” value (extracts of mouse spleen; 0.25 h) was 0%, the “Percent conversion … (NBMP)” value (extracts of mouse spleen; 0.25 h) was 0% and the “Percent conversion of NBMPR to NBMPR-P” value (extracts of mouse spleen; 0.5 h) was 0%. For the same molecule, the “Percent conversion … (NBMP)” value (extracts of mouse spleen; 0.5 h) was 0%, the “Percent conversion of NBMPR to NBMPR-P” value (extracts of mouse spleen; 1 h) was 0% and the “Percent conversion … (NBMP)” value (extracts of mouse spleen; 1 h) was 0%. For the same molecule, the “Percent conversion of NBMPR to NBMPR-P” value (extracts of mouse spleen; 2 h) was 0%, the “Percent conversion … (NBMP)” value (extracts of mouse spleen; 2 h) was 0% and the “Percent conversion of NBMPR to NBMPR-P” value (extracts of mouse spleen; 4 h) was 0%. The “Percent conversion … (NBMP)” value (extracts of mouse spleen; 4 h) was 0%, the viability at 48 h, 5 µM [8] was 98.8% and the viability at 48 h, 10 µM [8] was 97.1%. The viability at 48 h, 25 µM [8] was 96.3%, the viability at 48 h, 50 µM [8] was 95.4% and the activity at 5 µM ([9]; 5 μM) was 74.3%. It also gave an activity at 10 µM ([9]; 10 μM) of 55.5%, an activity at 25 µM ([9]; 25 μM) of 23.1% and an activity at 50 µM ([9]; 50 μM) of 6.7%.

In the case of `Nc1ncnc2c([C@@H]3O[C@H](CO)[C@@H](O)[C@H]3O)n[nH]c12` [Compound 81, 8-Aza-9-deazaadenosine (formycin A)], the Ki [10] is reported as 1400 µM, the “Effect on the phosphorylation” value [1] is reported as “no effect” and the “% Inhibition … Human Liver” value (extracts of human liver; 100 μM) is reported as 0%. The “% Inhibition … Human Liver” value (extracts of human liver; 250 μM) was 0%, the “% Inhibition … Human Liver” value (extracts of human liver; 500 μM) was 0% and the “% Inhibition … T. gondii” value ([2]; 100 μM) was 0%. For the same molecule, the “% Inhibition … T. gondii” value ([2]; 250 μM) was 0%, the “% Inhibition … T. gondii” value ([2]; 500 μM) was 0% and the “Effect on the phosphorylation” value [3] was “no effect”. For the same molecule, the “Effect on the phosphorylation” value [4] was “no effect”.

B1: T. gondii adenosine kinase (Toxoplasma gondii) (protein)
chain: MAVDSSNSATGPMRVFAIGNPILDLVAEVPSSFLDEFFLKRGDATLATPEQMRIYSTLDQFNPTSLPGGSALNSVRVVQKLLRKPGSAGYMGAIGDDPRGQVLKELCDKEGLATRFMVAPGQSTGVCAVLINEKERTLCTHLGACGSFRLPEDWTTFASGALIFYATAYTLTATPKNALEVAGYAHGIPNAIFTLNLSAPFCVELYKDAMQSLLLHTNILFGNEEEFAHLAKVHNLVAAEKTALSTANKEHAVEVCTGALRLLTAGQNTGATKLVVMTRGHNPVIAAEQTADGTVVVHEVGVPVVAAEKIVDTNGAGDAFVGGFLYALSQGKTVKQCIMCGNACAQDVIQHVGFSLSFTSLPC
For B1, the Km [11] was 5 µM.
